Results published in patent US8642622B2, “Piperidinyl compound as a modulator of chemokine receptor activity” (Bristol-Myers Squibb Company, priority 2010, dated 2014).

Assay: Single-dose pharmacokinetics in rats
Assay type: in vivo
Conditions: male, Sprague-Dawley, rat, plasma
Description: Serial blood samples were collected for all studies from the jugular vein at various time points post dose (0.17 (or 0.25 for oral), 0.5, 0.75, 1, 2, 4, 6, 8 and 24 h, for example). Plasma samples were analyzed by LC-MS/MS.
Additional studies evaluating suspensions of crystalline drug substance in aqueous medium were performed as described above.

`CC(C)[C@@H](NC(=O)c1cccc(C(=O)O)c1)C(=O)N1CC[C@](O)(c2ccc(Cl)cc2)C(C)(C)C1` [Example 463] showed a clearance (intravenous) of 75 mL/min/kg and a bioavailability (po, oral solution, read-out: Rat oral bioavailability when dosed as solution) of 9%.
